Experimental findings from patent US10155769B2, “Fused azaheterocyclic compounds and their use as AMPA receptor modulators” (Janssen Pharmaceutica NV, priority 2016, dated 2018) are described below.

Chain of GluA1o-γ8 (P42261 other isoform, or with tags, fused parts or gaps): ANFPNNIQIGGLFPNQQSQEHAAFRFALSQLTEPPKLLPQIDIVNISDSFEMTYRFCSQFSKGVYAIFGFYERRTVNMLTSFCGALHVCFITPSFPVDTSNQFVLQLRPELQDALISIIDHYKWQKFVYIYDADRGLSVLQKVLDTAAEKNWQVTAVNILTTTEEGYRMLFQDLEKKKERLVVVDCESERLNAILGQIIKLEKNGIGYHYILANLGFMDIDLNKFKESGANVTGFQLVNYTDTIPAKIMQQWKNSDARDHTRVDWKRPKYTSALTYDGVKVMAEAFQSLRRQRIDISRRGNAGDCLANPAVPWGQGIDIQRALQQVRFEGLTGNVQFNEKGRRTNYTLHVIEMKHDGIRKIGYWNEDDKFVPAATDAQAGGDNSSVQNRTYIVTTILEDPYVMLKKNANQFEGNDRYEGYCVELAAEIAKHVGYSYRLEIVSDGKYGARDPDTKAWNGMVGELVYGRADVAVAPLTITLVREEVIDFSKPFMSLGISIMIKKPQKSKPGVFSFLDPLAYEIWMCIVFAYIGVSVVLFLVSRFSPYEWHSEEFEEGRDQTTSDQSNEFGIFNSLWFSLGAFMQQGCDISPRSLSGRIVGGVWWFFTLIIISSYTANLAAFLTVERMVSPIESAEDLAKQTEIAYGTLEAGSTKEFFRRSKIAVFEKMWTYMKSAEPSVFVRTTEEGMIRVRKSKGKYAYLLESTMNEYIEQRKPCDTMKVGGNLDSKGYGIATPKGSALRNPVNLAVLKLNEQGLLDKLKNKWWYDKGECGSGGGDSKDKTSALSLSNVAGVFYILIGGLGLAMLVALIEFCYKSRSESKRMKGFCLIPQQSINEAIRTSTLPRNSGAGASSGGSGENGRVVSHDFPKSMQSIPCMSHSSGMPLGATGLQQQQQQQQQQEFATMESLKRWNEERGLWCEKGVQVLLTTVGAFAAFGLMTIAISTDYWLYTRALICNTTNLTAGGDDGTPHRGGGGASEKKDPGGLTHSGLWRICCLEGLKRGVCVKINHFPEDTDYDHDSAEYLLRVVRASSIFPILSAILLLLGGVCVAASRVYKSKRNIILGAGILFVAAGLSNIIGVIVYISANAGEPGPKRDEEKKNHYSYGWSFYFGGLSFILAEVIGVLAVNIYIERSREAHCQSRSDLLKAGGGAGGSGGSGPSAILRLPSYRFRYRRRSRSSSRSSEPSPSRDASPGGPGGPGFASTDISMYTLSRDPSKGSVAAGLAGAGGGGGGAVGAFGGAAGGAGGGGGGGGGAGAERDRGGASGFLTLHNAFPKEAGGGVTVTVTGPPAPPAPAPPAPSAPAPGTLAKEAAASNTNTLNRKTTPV

The assay deals with GluA1o-γ8 (Homo sapiens (Human), UniProt P42261+Q8WXS5). In words: Calcium flux assay (FLIPR), inhibition of TARP γ8 dependent AMPA receptor activity. The note with it: HEK293 cells stably expressing GRIA1o-CACNG8 fusion construct; calcium flux following 15 μM glutamate; negative log of IC50 in molar. It counts as cell-based. From the text:
This assay was used to test compounds for their ability to inhibit TARP γ8 dependent AMPA receptor activity. The AMPA receptor is a non-selective cation channel activated by glutamate. Ionotropic glutamate receptors normally desensitize too rapidly to allow detectable calcium influx in a FLIPR assay (Strange et al. (2006). “Functional characterisation of homomeric ionotropic glutamate receptors GluR1-GluR6 in a fluorescence-based high throughput screening assay.” Comb Chem High Throughput Screen 9(2): 147-158). But, this desensitization is incomplete, and a substantial steady-state current remains in the sustained presence of glutamate (Cho et al. (2007). “Two families of TARP isoforms that have distinct effects on the kinetic properties of AMPA receptors and synaptic currents.” Neuron 55(6): 890-904).
An in vitro assay was used to determine the potency of test compounds as inhibitors of the glutamate response of the channel formed by GluA1o-γ8. To ensure a 1:1 stoichiometry of GluA1o and γ8 subunits in the expressed channel, a fusion of the cDNAs for GRIA1o and CACNG8 was used. Following Shi et al (2009) “The stoichiometry of AMPA receptors and TARPs varies by neuronal cell type.” Neuron 62(5): 633-640), the C-terminus of the cDNA for GRIA1o was fused to the N-terminus of the cDNA for γ8. The linker sequence was QQQQQQQQQQEFAT. Channels expressed with this construct appear to have similar properties to channels formed by co-expression of GRIA1o with an excess of CACNG8 (Shi et al. 2009). A clonal cell line in HEK293 cells stably expressing this construct, with a geneticin selection marker, was generated for use in this assay.
Cell expressing the GRIA1o-CACNG8 fusion construct were grown in a monolayer in 96- or 384-well microtiter plates. They were washed with assay buffer (135 mM NaCl, 4 mM KCl, 3 mM CaCl2, 1 mM MgCl2, 5 mM glucose, 10 mM HEPES, pH 7.4, 300 mOs) using a Biotek EL405 plate washer. The cells were then loaded with a calcium-sensitive dye (Calcium-5 or Calcium-6, Molecular Devices) and the test compounds at a range of concentrations. Calcium flux following the addition of 15 μM glutamate was monitored using a Molecular Devices FLIPR Tetra.
The fluorescence in each well was normalized to the fluorescence of negative and positive control wells. The negative control wells had no added compounds, and the positive control wells had been incubated with 10 μM CP465022 (a non-subtype-selective AMPA receptor antagonist) (Lazzaro et al. (2002). “Functional characterization of CP-465,022, a selective, noncompetitive AMPA receptor antagonist.” Neuropharmacology 42(2): 143-153). The responses to glutamate as functions of the test compound concentrations were fitted to a four-parameter logistic function. The fitted parameter corresponding to the midpoint was taken to be the potency of inhibition of the compound. The data in Table 4 below illustrates the observed potency for the compounds described herein. pIC50 refers to the negative log of the IC50 in molar.
`Cc1cc(-c2c(C(F)(F)F)ncn3cc(C4CC4)nc23)cc2cn[nH]c12` [Example 68, 2-Cyclopropyl-8-(7-methyl-1H-indazol-5-yl)-7-(trifluoromethyl)imidazo[1,2-c]pyrimidine]: the pIC50 came out at 9.6.

Consider `FC(F)(F)c1nc2c(-c3cc(Cl)c4[nH]ncc4c3)c(C(F)(F)F)ccn2n1` [Example 19, 8-(7-Chloro-1H-indazol-5-yl)-2,7-bis(trifluoromethyl)-[1,2,4]triazolo[1,5-a]pyridine], for which the pIC50 is given as 9.6.

Turning to `Fc1ccc(-c2ccn3nc(C(F)(F)F)nc3c2-c2cc(Cl)c3[nH]ncc3c2)cc1` [Example 43, 7-(4-Fluorophenyl)-8-(7-chloro-1H-indazol-5-yl)-2-(trifluoromethyl)-[1,2,4]triazolo[1,5-a]pyridine], the pIC50 is given as 11.0.

With `Cc1ccn2nc(C(C)C)nc2c1-c1cc(C)c2[nH]ncc2c1` [Example 40, 2-Isopropyl-7-methyl-8-(7-methyl-1H-indazol-5-yl)-[1,2,4]triazolo[1,5-a]pyridine], the pIC50 was 6.9.

Regarding `Cc1cc(-c2c(C(C)C)ccn3nc(C(F)(F)F)nc23)cc2cn[nH]c12` [Example 49, 7-Isopropyl-8-(7-methyl-1H-indazol-5-yl)-2-(trifluoromethyl)-[1,2,4]triazolo[1,5-a]pyridine], the pIC50 stood at 10.5.

Consider `Cc1cc(-c2c(C)ccn3cc(C(F)(F)F)nc23)cc2c1NC(=O)C2` [Example 11, 7-Methyl-5-[7-methyl-2-(trifluoromethyl)imidazo[1,2-a]pyridin-8-yl]indolin-2-one], for which the half-maximal inhibitory concentration (IC50) was 1 nM.

For `FC(F)c1cn2cnc(C(F)(F)F)c(-c3cc(Cl)c4[nH]ncc4c3)c2n1` [Example 14, 8-(7-Chloro-1H-indazol-5-yl)-2-(difluoromethyl)-7-(trifluoromethyl)imidazo[1,2-c]pyrimidine], the IC50 is 0.398 nM.

Regarding `FC(F)(F)c1nc2c(-c3cc(Cl)c4[nH]ncc4c3)c(Cl)ccn2n1` [Example 41, 7-Chloro-8-(7-chloro-1H-indazol-5-yl)-2-(trifluoromethyl)-[1,2,4]triazolo[1,5-a]pyridine], the pIC50 is 9.0.

As for `Cc1nc2c(-c3cc(C)c4[nH]ncc4c3)c(C(F)(F)F)ccn2n1` [Example 33, 2-Methyl-8-(7-methyl-1H-indazol-5-yl)-7-(trifluoromethyl)-[1,2,4]triazolo[1,5-a]pyridine], the pIC50 amounted to 7.9.

For `Cc1cc(-c2c(N3CCC3)ccn3nc(C(F)(F)F)nc23)cc2cn[nH]c12` [Example 7, 7-(Azetidin-1-yl)-8-(7-methyl-1H-indazol-5-yl)-2-(trifluoromethyl)-[1,2,4]triazolo[1,5-a]pyridine], the pIC50 came out at 9.5.

For `CC(C)c1cn2ccc(C(F)(F)F)c(-c3cc(Cl)c4[nH]ncc4c3)c2n1` [Example 89, 8-(7-Chloro-1H-indazol-5-yl)-2-isopropyl-7-(trifluoromethyl)imidazo[1,2-a]pyridine], the pIC50 was 10.6.

For `Cc1ccn2cc(C3CC3)nc2c1-c1cc(C)c2[nH]ncc2c1` [Example 57, 2-Cyclopropyl-7-methyl-8-(7-methyl-1H-indazol-5-yl)imidazo[1,2-a]pyridine], the pIC50 was determined as 7.6.

With `CCc1nc2c(-c3cc(C)c4[nH]ncc4c3)c(C(F)(F)F)ccn2n1` [Example 35, 2-Ethyl-8-(7-methyl-1H-indazol-5-yl)-7-(trifluoromethyl)-[1,2,4]triazolo[1,5-a]pyridine], the pIC50 is recorded as 8.8.

For `Cc1ccn2nc(C(F)(F)F)nc2c1-c1cc(C)c2[nH]ncc2c1` [Example 27, 7-Methyl-8-(7-methyl-1H-indazol-5-yl)-2-(trifluoromethyl)-[1,2,4]triazolo[1,5-a]pyridine], the pIC50 is listed as 8.4.

In the case of `Cc1cc(-c2c(C(F)(F)F)ccn3cc(C(F)(F)F)nc23)cc2cn[nH]c12` [Example 62, 5-(2,7-Bis(trifluoromethyl)imidazo[1,2-a]pyridin-8-yl)-7-methyl-1H-indazole], the pIC50 is reported as 9.5.

`Cc1ccn2cc(C(C)(C)C)nc2c1-c1cc(C)c2[nH]ncc2c1` [Example 53, 2-tert-Butyl-7-methyl-8-(7-methyl-1H-indazol-5-yl)imidazo[1,2-a]pyridine]: the pIC50 was 7.5.

For the compound `CCc1cn2cnc(C(F)(F)F)c(-c3cc(C)c4[nH]ncc4c3)c2n1` [Example 65, 2-Ethyl-8-(7-methyl-1H-indazol-5-yl)-7-(trifluoromethyl)imidazo[1,2-c]pyrimidine], the pIC50 is given as 8.8.

Consider `CCc1ncn2cc(C(F)(F)F)nc2c1-c1cc(C)c2[nH]ncc2c1` [Example 74, 7-Ethyl-8-(7-methyl-1H-indazol-5-yl)-2-(trifluoromethyl)imidazo[1,2-c]pyrimidine], for which the pIC50 came out at 8.7.

`Cc1cc(-c2c(Cl)ccn3cc(C(F)(F)F)nc23)cc2cn[nH]c12` [Example 60, 7-Chloro-8-(7-methyl-1H-indazol-5-yl)-2-(trifluoromethyl)imidazo[1,2-a]pyridine]: the pIC50 is listed as 9.0.

Consider `O=C1Cc2cc(-c3c(C(F)(F)F)ccn4nc(C(F)(F)F)nc34)cc(Cl)c2N1` [Example 21, 5-(2,7-Bis(trifluoromethyl)-[1,2,4]triazolo[1,5-a]pyridin-8-yl)-7-chloroindolin-2-one], for which the negative logarithm of the IC50 (pIC50) turned out to be 9.5.

On to `O=C1Cc2cc(-c3c(C(F)(F)F)ccn4nc(C(F)F)nc34)cc(Cl)c2N1` [Example 17, 7-Chloro-5-(2-(difluoromethyl)-7-(trifluoromethyl)-[1,2,4]triazolo[1,5-a]pyridin-8-yl)indolin-2-one], for which the pIC50 came out at 8.9.

Consider `FC(F)c1nc2c(-c3cc(Cl)c4[nH]ncc4c3)c(C(F)(F)F)ccn2n1` [Example 1, 8-(7-Chloro-1H-indazol-5-yl)-2-(difluoromethyl)-7-(trifluoromethyl)-[1,2,4]triazolo[1,5-a]pyridine], for which the pIC50 came to 9.5.

On to `CCc1ccn2nc(C(F)(F)F)nc2c1-c1cc(C)c2[nH]ncc2c1` [Example 28, 7-Ethyl-8-(7-methyl-1H-indazol-5-yl)-2-(trifluoromethyl)-[1,2,4]triazolo[1,5-a]pyridine], for which the pIC50 is recorded as 9.1.

With `CCc1ncn2cc(C(F)(F)F)nc2c1-c1cc(Cl)c2[nH]ncc2c1` [Example 73, 8-(7-Chloro-1H-indazol-5-yl)-7-ethyl-2-(trifluoromethyl)imidazo[1,2-c]pyrimidine], the pIC50 is recorded as 9.1.

For `Cc1ncn2cc(C(F)(F)F)nc2c1-c1cc(Cl)c2[nH]ncc2c1` [Example 76, 8-(7-Chloro-1H-indazol-5-yl)-7-methyl-2-(trifluoromethyl)imidazo[1,2-c]pyrimidine], the pIC50 was found to be 8.5.

`Cc1cc(-c2c(-c3ccc(F)cc3)ccn3nc(C4CCCC4)nc23)cc2cn[nH]c12` [Example 9, 2-Cyclopentyl-7-(4-fluorophenyl)-8-(7-methyl-1H-indazol-5-yl)-[1,2,4]triazolo[1,5-a]pyridine]: the negative logarithm of the IC50 (pIC50) is 10.8.

As to `Cc1ccn2cc(-c3ccccc3)nc2c1-c1cc(C)c2[nH]ncc2c1` [Example 56, 7-Methyl-8-(7-methyl-1H-indazol-5-yl)-2-phenyl-imidazo[1,2-a]pyridine], the pIC50 is 7.9.

As to `O=C1Cc2cc(-c3c(C(F)(F)F)ccn4cc(C(F)(F)F)nc34)cc(Cl)c2N1` [Example 86, 5-(2,7-Bis(trifluoromethyl)imidazo[1,2-a]pyridin-8-yl)-7-chloroindolin-2-one], the pIC50 stood at 9.8.

Consider `CCc1nc2c(-c3cc(Cl)c4[nH]ncc4c3)c(C(F)(F)F)ccn2n1` [Example 34, 8-(7-Chloro-1H-indazol-5-yl)-2-ethyl-7-(trifluoromethyl)-[1,2,4]triazolo[1,5-a]pyridine], for which the pIC50 is recorded as 9.4.

For `Cc1cc(-c2c(N3CC(F)C3)ccn3nc(C(F)(F)F)nc23)cc2cn[nH]c12` [Example 8, 7-(3-Fluoroazetidin-1-yl)-8-(7-methyl-1H-indazol-5-yl)-2-(trifluoromethyl)-[1,2,4]triazolo[1,5-a]pyridine], the pIC50 was 8.6.

In general, pIC50 refers to the IC50 on a negative log10 scale, so that one unit is a factor of ten. Broadly, the IC50 is the concentration needed to halve the response being measured.
